This note sets out measurements from US9376396B2, “Acylaminocycloalkyl compounds suitable for treating disorders that respond to modulation of dopamine D3 receptor” (AbbVie Deutschland GmbH & Co. KG, priority 2012, dated 2016).

The nature of data set [1]: Determination of the microsomal half-life / microsomal clearance, human. The format is in vitro ADME. The settings on record: human liver microsomes, 0.5 μM test substance, 0.25 mg microsomal protein/ml, NADPH, 37° C. As for the experimental part: (§1) The metabolic stability of the compounds of the invention was determined in the following assay.
(§2) The test substances were incubated in a concentration of 0.5 μM as follows:
(§3) 0.5 μM test substance are preincubated together with liver microsomes from different species (from rat, human or other species) (0.25 mg of microsomal protein/ml) in 0.05 M potassium phosphate buffer of pH 7.4 in microtiter plates at 37° C. for 5 min. The reaction is started by adding NADPH (1 mg/mL). After 0, 5, 10, 15, 20 and 30 min, 50 μl aliquots are removed, and the reaction is immediately stopped and cooled with the same volume of acetonitrile. The samples are frozen until analyzed. The remaining concentration of undegraded test substance is determined by MSMS. The half-life (T½) is determined from the gradient of the signal of test substance/unit time plot, it being possible to calculate the half-life of the test substance, assuming first order kinetics, from the decrease in the concentration of the compound with time. The microsomal clearance (mCl) is calculated from mCl=ln 2/T½/(content of microsomal protein in mg/ml)×1000 [ml/min/mg] (modified from references: Di, The Society for Biomoleculur Screening, 2003, 453-462; Obach, DMD, 1999 vol 27. N 11, 1350-1359).
For orientation: Liver microsomes are a subcellular fraction often used to study metabolism.

The nature of data set [2]: Determination of the microsomal half-life / microsomal clearance, rat. The format is in vitro ADME. The settings on record: rat liver microsomes, 0.5 μM test substance, 0.25 mg microsomal protein/ml, NADPH, 37° C. The method, then: as §1, §2, §3
Data set [3] addresses T1, human dopamine D2L receptors (long isoform) (Homo sapiens, UniProt P14416).
T1 construct: expressed in transfected cells; host or cells: HEK-293
In words: Receptor binding study, dopamine D2L receptor ([125I]iodospiperone displacement), selectivity vs D3. The settings on record: selectivity ratio, HEK-293 membranes. As for the experimental part:
(§4) The substance to be tested was either dissolved in methanol/Chremophor® (BASF SE) or in dimethyl sulfoxide and then diluted with water to the desired concentration.
(§5) Each assay mixture was run in triplicate. • The incubation buffer contained 50 mM tris, 120 mM NaCl, 5 mM KCl, 2 mM CaCl2, 2 mM MgCl2 and 0.1% bovine serum albumin, 10 μM quinolone and 0.1% ascorbic acid (prepared fresh daily). […] Each assay mixture was run in triplicate. • The incubation buffer contained 50 mM tris, 120 mM NaCl, 5 mM KCl, 2 mM CaCl2, 2 mM MgCl2 and 0.1% bovine serum albumin. The buffer was adjusted to pH 7.4 with HCl. c) Measurement and Analysis: • After having been incubated at 25° C. for 60 minutes, the assay mixtures were filtered through a Whatman GF/B glass fiber filter under vacuum using a cell collecting device. The filters were transferred to scintillation viols using a filter transfer system. After 4 ml of Ultima Gold® (Packard) have been added, the samples were shaken for one hour and the radioactivity was then counted in a Beta-Counter (Packard, Tricarb 2000 or 2200CA).

Data set [4] has as its target T2, human dopamine D3 receptors (Homo sapiens, UniProt P35462).
T2 construct: expressed in transfected cells; host or cells: HEK-293
As to the kind of experiment: Receptor binding study, dopamine D3 receptor ([125I]-iodosulpride displacement). The settings on record: membranes of HEK-293 cells, 0.1 nM [125I]-iodosulpride, 25° C., 60 minutes. As for the experimental part:
as §4, §5

T1 sequence (P14416 whole entry, canonical isoform): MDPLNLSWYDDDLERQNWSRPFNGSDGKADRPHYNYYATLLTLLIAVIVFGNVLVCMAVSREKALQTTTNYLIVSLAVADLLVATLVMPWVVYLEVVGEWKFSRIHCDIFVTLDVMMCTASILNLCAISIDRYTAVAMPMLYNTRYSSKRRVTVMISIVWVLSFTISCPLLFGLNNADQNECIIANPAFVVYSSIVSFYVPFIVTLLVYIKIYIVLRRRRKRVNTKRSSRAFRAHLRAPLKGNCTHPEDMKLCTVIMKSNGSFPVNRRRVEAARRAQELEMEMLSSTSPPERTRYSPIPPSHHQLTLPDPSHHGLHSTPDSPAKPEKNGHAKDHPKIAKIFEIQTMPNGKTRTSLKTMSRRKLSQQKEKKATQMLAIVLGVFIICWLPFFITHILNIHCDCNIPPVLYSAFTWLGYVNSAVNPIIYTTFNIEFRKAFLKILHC
T2 sequence (P35462 whole entry): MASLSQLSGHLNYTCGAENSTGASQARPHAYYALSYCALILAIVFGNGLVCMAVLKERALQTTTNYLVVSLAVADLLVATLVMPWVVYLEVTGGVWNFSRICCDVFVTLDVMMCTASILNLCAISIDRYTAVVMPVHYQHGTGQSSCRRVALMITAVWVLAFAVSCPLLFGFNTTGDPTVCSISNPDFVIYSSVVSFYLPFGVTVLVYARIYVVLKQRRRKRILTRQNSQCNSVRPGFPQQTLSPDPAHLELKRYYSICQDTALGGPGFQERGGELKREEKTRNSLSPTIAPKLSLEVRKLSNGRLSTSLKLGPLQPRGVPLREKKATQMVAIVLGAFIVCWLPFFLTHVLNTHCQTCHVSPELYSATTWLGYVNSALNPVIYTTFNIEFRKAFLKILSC

Consider `COCCc1cc(N2CCN(CC[C@H]3CC[C@@H](NC(C)=O)CC3)CC2)nc(C(C)(C)C)n1` [Compound 3, cis-N-[4-(2-{4-[2-tert-Butyl-6-(2-methoxy-ethyl)-pyrimidin-4-yl]-piperazin-1-yl}-ethyl)-cyclohexyl]-acetamide], for which, in data set [1], the “Human mCl” value is “+ (+: 20-120 μl min^−1 mg^−1)”. Further, the “Rat mCl” value in data set [2] is “+ (+: 20-120 μl min^−1 mg^−1)”.
In the case of `COCCc1cc(N2CCN(CC[C@H]3C[C@@H](NC(C)=O)C3)CC2)nc(C(C)(C)C)n1.O=C(O)C(F)(F)F` [Compound 4a, cis-N-[3-(2-{4-[2-tert-Butyl-6-(2-methoxy-ethyl)-pyrimidin-4-yl]-piperazin-1-yl}-ethyl)-cyclobutyl]-acetamide trifluoroacetate], the “Human mCl” value in data set [1] is given as “+ (+: 20-120 μl min^−1 mg^−1)”. The “Rat mCl” value in data set [2] is “+ (+: 20-120 μl min^−1 mg^−1)”.
The term Ki denotes the equilibrium dissociation constant of an inhibitor or competing ligand from its target. Higher therefore signals weaker binding. `COCCc1cc(N2CCN(CC[C@H]3C[C@H](NC(C)=O)C3)CC2)nc(C(C)(C)C)n1.O=C(O)C(F)(F)F` [Compound 4b, trans-N-[3-(2-{4-[2-tert-Butyl-6-(2-methoxy-ethyl)-pyrimidin-4-yl]-piperazin-1-yl}-ethyl)-cyclobutyl]-acetamide trifluoroacetate]: the “Human mCl” value in data set [1] was “+ (+: 20-120 μl min^−1 mg^−1)”. Besides, the “D2/D3 (Ki (D2L)/Ki (D3))” value in data set [3] is recorded as “+++ (+++>50)”. Moreover, in data set [2], the “Rat mCl” value is “+ (+: 20-120 μl min^−1 mg^−1)”. The compound also displayed a Ki in data set [4] below 50 nM.
For the compound `COCCc1cc(N2CCN(CC[C@H]3CC[C@H](NC(C)=O)CC3)[C@H](C)C2)nc(C(C)(C)C)n1` [Compound 5, trans-N-[4-(2-{(2R)-4-[2-tert-Butyl-6-(2-methoxy-ethyl)-pyrimidin-4-yl]-2-methyl-piperazin-1-yl}-ethyl)-cyclohexyl]-acetamide], the “Human mCl” value in data set [1] was “+ (+: 20-120 μl min^−1 mg^−1)”. For the same compound, the “D2/D3 (Ki (D2L)/Ki (D3))” value in data set [3] was “+++ (+++>50)”. Also, the “Rat mCl” value in data set [2] is “+ (+: 20-120 μl min^−1 mg^−1)”. The compound also displayed an inhibitory constant (Ki) in data set [4] below 50 nM.
Turning to `COCCc1cc(N2CCN(CC[C@H]3CC[C@H](NC(C)=O)CC3)C[C@@H]2C)nc(C(C)(C)C)n1` [Compound 8, trans-N-[4-(2-{(3S)-4-[2-tert-Butyl-6-(2-methoxy-ethyl)-pyrimidin-4-yl]-3-methyl-piperazin-1-yl}-ethyl)-cyclohexyl]-acetamide], the “Human mCl” value in data set [1] is given as “+ (+: 20-120 μl min^−1 mg^−1)”. Besides, in data set [3], the “D2/D3 (Ki (D2L)/Ki (D3))” value was “+++ (+++>50)”. Besides, the “Rat mCl” value in data set [2] is reported as “+ (+: 20-120 μl min^−1 mg^−1)”. This compound also yielded an inhibitory constant (Ki) in data set [4] below 10 nM.
For `CC(=O)N[C@H]1CC[C@@H](CCN2CCN(c3cc(CCOC(F)(F)F)nc(C(C)(C)C)n3)CC2)CC1` [Compound 10a, cis N-[4-(2-{4-[2-tert-Butyl-6-(2-trifluoromethoxy-ethyl)-pyrimidin-4-yl]-piperazin-1-yl}-ethyl)-cyclohexyl]-acetamide], in data set [3], the “D2/D3 (Ki (D2L)/Ki (D3))” value was “++ (++>20)”. The same compound displayed a Ki in data set [4] below 10 nM.
Take `CC(=O)N[C@H]1CC[C@H](CCN2CCN(c3cc(CCOC(F)(F)F)nc(C(C)(C)C)n3)CC2)CC1` [Compound 10b, trans N-[4-(2-{4-[2-tert-Butyl-6-(2-trifluoromethoxy-ethyl)-pyrimidin-4-yl]-piperazin-1-yl}-ethyl)-cyclohexyl]-acetamide]: the “Human mCl” value in data set [1] was “+ (+: 20-120 μl min^−1 mg^−1)”. In addition, the “D2/D3 (Ki (D2L)/Ki (D3))” value in data set [3] is listed as “+ (+>10)”. The “Rat mCl” value in data set [2] is given as “∘ (∘: >120 μl min^−1 mg^−1)”. Besides, in data set [4], the inhibition constant (Ki) was below 10 nM.
Taken in the same sequence, the figures for `COCCc1cc(N2CCN(CCC3CC(NC=O)C3)CC2)nc(C(C)(C)C)n1.O=C(O)C(F)(F)F` (centres unmarked) [Compound 12, N-[3-(2-{4-[2-tert-Butyl-6-(2-methoxy-ethyl)-pyrimidin-4-yl]-piperazin-1-yl}-ethyl)-cyclobutyl]-formamide trifluoroacetate] were “+ (+: 20-120 μl min^−1 mg^−1)”, “++ (++>20)”, “+ (+: 20-120 μl min^−1 mg^−1)” and below 10 nM.
Taken in the same sequence, the figures for `COCCc1cc(N2CCN(CC[C@@H]3CC[C@@H](NC(C)=O)C3)CC2)nc(C(C)(C)C)n1` [Compound 14, trans-N-[(1R,3S)-3-[2-[4-[2-tert-butyl-6-(2-methoxyethyl)pyrimidin-4-yl]piperazin-1-yl]ethyl]cyclopentyl]acetamide] were “+ (+: 20-120 μl min^−1 mg^−1)”, “+++ (+++>50)”, “+ (+: 20-120 μl min^−1 mg^−1)” and below 50 nM.
Taken in the same sequence, the figures for `COCCc1cc(N2CCN(CC[C@H]3CC[C@H](NC(C)=O)C3)CC2)nc(C(C)(C)C)n1` [Compound 15, trans-N-[(1S,3R)-3-[2-[4-[2-tert-butyl-6-(2-methoxyethyl)pyrimidin-4-yl]piperazin-1-yl]ethyl]cyclopentyl]acetamide] were “+ (+: 20-120 μl min^−1 mg^−1)”, “+++ (+++>50)”, “+ (+: 20-120 μl min^−1 mg^−1)” and below 10 nM.
For the compound `COCCc1cc(N2CCN(CC[C@@H]3CC[C@H](NC(C)=O)C3)CC2)nc(C(C)(C)C)n1` [Compound 16, cis-N-[(1S,3S)-3-[2-[4-[2-tert-butyl-6-(2-methoxyethyl)pyrimidin-4-yl]piperazin-1-yl]ethyl]cyclopentyl]acetamide], in data set [1], the “Human mCl” value was “+ (+: 20-120 μl min^−1 mg^−1)”. Besides, the “D2/D3 (Ki (D2L)/Ki (D3))” value in data set [3] was “+++ (+++>50)”. The “Rat mCl” value in data set [2] is on record as “+ (+: 20-120 μl min^−1 mg^−1)”. In data set [4], the inhibitory constant (Ki) was below 50 nM.
With `COCCc1cc(N2CCN(CC[C@H]3C[C@@H](NC=O)C3)CC2)nc(C(C)(C)C)n1` [Compound 17, N-[cis-3-[2-[4-[2-tert-butyl-6-(2-methoxyethyl)pyrimidin-4-yl]piperazin-1-yl]ethyl]cyclobutyl]formamide], the “Human mCl” value in data set [1] was “+ (+: 20-120 μl min^−1 mg^−1)”. In addition, in data set [3], the “D2/D3 (Ki (D2L)/Ki (D3))” value is listed as “++ (++>20)”. Besides, the “Rat mCl” value in data set [2] is on record as “+ (+: 20-120 μl min^−1 mg^−1)”. The compound also registered an inhibitory constant (Ki) in data set [4] below 50 nM.
Consider `COCCc1cc(N2CCN(CC[C@H]3C[C@H](NC=O)C3)CC2)nc(C(C)(C)C)n1` [Compound 18, N-[trans-3-[2-[4-[2-tert-butyl-6-(2-methoxyethyl)pyrimidin-4-yl]piperazin-1-yl]ethyl]cyclobutyl]formamide], for which the “Human mCl” value in data set [1] is given as “+ (+: 20-120 μl min^−1 mg^−1)”. Also, the “D2/D3 (Ki (D2L)/Ki (D3))” value in data set [3] is on record as “++ (++>20)”. The “Rat mCl” value in data set [2] is recorded as “∘ (∘: >120 μl min^−1 mg^−1)”. Also, the inhibition constant Ki in data set [4] was below 50 nM.
With `COCCc1cc(N2CCN(CC[C@H]3CC[C@H](NC=O)CC3)C[C@H]2C)nc(C(C)(C)C)n1` [Compound 19, trans-N-[4-[2-[(3R)-4-[2-tert-butyl-6-(2-methoxyethyl)pyrimidin-4-yl]-3-methyl-piperazin-1-yl]ethyl]cyclohexyl]formamide], in data set [1], the “Human mCl” value is on record as “+ (+: 20-120 μl min^−1 mg^−1)”. Besides, the “D2/D3 (Ki (D2L)/Ki (D3))” value in data set [3] is given as “+++ (+++>50)”. In data set [4], this compound yielded a Ki below 50 nM.
Take `COCCc1cc(N2CCN(CC[C@H]3CC[C@H](NC=O)CC3)C[C@@H]2C)nc(C(C)(C)C)n1` [Compound 20, trans-N-[4-[2-[(3S)-4-[2-tert-butyl-6-(2-methoxyethyl)pyrimidin-4-yl]-3-methyl-piperazin-1-yl]ethyl]cyclohexyl]formamide]: in data set [1], the “Human mCl” value is recorded as “+ (+: 20-120 μl min^−1 mg^−1)”. For the same compound, in data set [3], the “D2/D3 (Ki (D2L)/Ki (D3))” value is on record as “+++ (+++>50)”. Moreover, in data set [2], the “Rat mCl” value is given as “+ (+: 20-120 μl min^−1 mg^−1)”. In addition, the Ki in data set [4] was below 10 nM.
Take `COCc1cc(N2CCN(CC[C@H]3CC[C@H](NC=O)CC3)CC2)nc(C(C)(C)C)n1` [Compound 21, trans-N-[4-[2-[4-[2-tert-butyl-6-(methoxymethyl)pyrimidin-4-yl]piperazin-1-yl]ethyl]cyclohexyl]formamide]: in data set [1], the “Human mCl” value is recorded as “+ (+: 20-120 μl min^−1 mg^−1)”.
As to `CC(=O)N[C@H]1CC[C@H](CCN2CCN(c3cc(CCO)nc(C(C)(C)C)n3)C[C@H]2C)CC1` [Compound 26, trans-N-[4-[2-[(2R)-4-[2-tert-butyl-6-(2-hydroxyethyl)pyrimidin-4-yl]-2-methyl-piperazin-1-yl]ethyl]cyclohexyl]acetamide], the “Human mCl” value in data set [1] was “+ (+: 20-120 μl min^−1 mg^−1)”. The “Rat mCl” value in data set [2] is reported as “+ (+: 20-120 μl min^−1 mg^−1)”.
